Measured values: patent US6525001B1, “Substituted pyrimidine and pyridine herbicides” (Mid-American Commercialization Corporation, priority 1997, dated 2003)

Key:
Format in all cases: in vivo
[1] = tested on: dallisgrass (Paspalum dilatatum); assay: Test E pre-/postemergence/post directed; parameters: key: 0 is no effect; 100 is complete control
Text: (§1) Seeds, tubers, or plant parts of alexandergrass (Brachiaria plantaginea), annual bluegrass (Poa annua), arrowleaf sida (Sida rhombifolia), barnyardgrass (Echinochloa crus-galli), bermudagrass (Cynodon dactylon), citrus (Citrus sinensis), common chickweed (Stellaria media), common purslane (Portulaca oleracea), common ragweed (Ambrosia elatior), common groundsel (Senecio vulgaris), dallisgrass (Paspalum dilatatum), goosegrass (Eleusine indica), green foxtail (Setaria viridis), guineagrass (Panicum maximum), itchgrass (Rottboellia exaltata), johnson grass (Sorghum halepense), kochia (Kochia scoparia), large crabgrass (Digitaria sanguinalis), leafy spurge (Euphorbia esula), pitted morningglory (Ipomoea lacunosa), purple nutsedge (Cyperus rotundus), quackgrass (Agropyron repens), Russian thistle (Salsola kali), sandbur (Cenchrus echinatus), sourgrass (Trichachne insularis), Spanishneedles (Bidens bipinnata), sugarcane (Saccharum officinarum), surinam grass (Brachiaria decumbens) and tall mallow (Malva sylvestris) were planted into greenhouse pots of flats containing greenhouse planting medium. Plant species were grown grown in separate pots or individual compartments. Preemergence applications were made within one day of planting the seed or plant part. Postemergence applications were applied when the plants were in the two to four leaf stage (three to twenty cm).
(§2) Test chemicals were formulated in a non-phytotoxic solvent mixture which included a surfactant and applied preemergence to the soil surface, postemergence to the plants or as a post directed spray to plants and soil at the base of the target species. Untreated control plants and treated plants were placed in the greenhouse and visually evaluated for injury 13 to 21 days after herbicide application. Plant response ratings, summarized in Table E, are based on a 0 to 100 scale where 0 is no injury and 100 is complete control. A dash (−) response means no test result.

[2] = tested on: sourgrass (Trichachne insularis); assay: Test E pre-/postemergence/post directed; parameters: key: 0 is no effect; 100 is complete control
Text: as §1, §2

[3] = tested on: guineagrass (Panicum maximum); assay: Test E pre-/postemergence/post directed; parameters: key: 0 is no effect; 100 is complete control
Text: as §1, §2

[4] = tested on: tall mallow (Malva sylvestris); assay: Test E pre-/postemergence/post directed; parameters: key: 0 is no effect; 100 is complete control; settings: PREEMERGENCE
Text: as §1, §2

[5] = tested on: common groundsel (Senecio vulgaris); assay: Test E pre-/postemergence/post directed; parameters: key: 0 is no effect; 100 is complete control; settings: PREEMERGENCE
Text: as §1, §2

wild oat (Avena fatua) = assay: Test B pre-/postemergence; parameters: key: 0 is no effect; 10 is complete control
Outline: (§3)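 Scored visually 0 (none) to 10 (complete control) against untreated plants after twelve to sixteen greenhouse days. Test chemicals, formulated in surfactant-containing non-phytotoxic solvent, applied to soil after planting and, separately, onto 1- to 4-leaf (2–18 cm) plants.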

[6] = tested on: crabgrass (Digitaria sanguinalis); assay: Test B pre-/postemergence; parameters: key: 0 is no effect; 10 is complete control; settings: for Crabgrass plant response rating: Preemergence
Outline: as §3

[7] = tested on: blackgrass (Alopecurus myosuroides); assay: Test B pre-/postemergence; parameters: key: 0 is no effect; 10 is complete control; settings: for Blackgrass plant response rating: Preemergence
Outline: as §3

soybean (Glycine max) = assay: Test B pre-/postemergence; parameters: key: 0 is no effect; 10 is complete control
Outline: as §3

[8] = tested on: purple nutsedge (Cyperus rotundus); assay: Test B pre-/postemergence; parameters: key: 0 is no effect; 10 is complete control
Outline: as §3

[9] = Rate 250 g/ha, Postemergence (so in the source)

For `Cc1cnc(-n2cnc(C(F)(F)F)c2)nc1Cc1cccc(C(F)(F)F)c1` [Compound 44], the “Plant response rating, Dallisgrass” value ([1]; POSTEMERGENCE, Rate 125 g/ha) was 10, the “Plant response rating, Dallisgrass” value ([1]; POSTEMERGENCE, Rate 250 g/ha) was 10 and the “Plant response rating, Dallisgrass” value ([1]; PREEMERGENCE, Rate 32 g/ha) was 65. For the same molecule, the “Plant response rating, Dallisgrass” value ([1]; PREEMERGENCE, Rate 64 g/ha) was 80, the “Plant response rating, Dallisgrass” value ([1]; PREEMERGENCE, Rate 125 g/ha) was 90 and the “Plant response rating, Dallisgrass” value ([1]; PREEMERGENCE, Rate 250 g/ha) was 100. For the same molecule, the “Plant response rating, Sourgrass” value ([2]; POSTEMERGENCE, Rate 125 g/ha) was 10, the “Plant response rating, Sourgrass” value ([2]; POSTEMERGENCE, Rate 250 g/ha) was 20 and the “Plant response rating, Sourgrass” value ([2]; PREEMERGENCE, Rate 32 g/ha) was 80. The “Plant response rating, Sourgrass” value ([2]; PREEMERGENCE, Rate 64 g/ha) was 100, the “Plant response rating, Sourgrass” value ([2]; PREEMERGENCE, Rate 125 g/ha) was 100 and the “Plant response rating, Sourgrass” value ([2]; PREEMERGENCE, Rate 250 g/ha) was 100. The “Plant response rating, Guineagrass” value ([3]; POSTEMERGENCE, Rate 125 g/ha) was 85, the “Plant response rating, Guineagrass” value ([3]; POSTEMERGENCE, Rate 250 g/ha) was 85 and the “Plant response rating, Guineagrass” value ([3]; PREEMERGENCE, Rate 32 g/ha) was 20. The “Plant response rating, Guineagrass” value ([3]; PREEMERGENCE, Rate 64 g/ha) was 80, the “Plant response rating, Guineagrass” value ([3]; PREEMERGENCE, Rate 125 g/ha) was 100 and the “Plant response rating, Guineagrass” value ([3]; PREEMERGENCE, Rate 250 g/ha) was 100. For the same molecule, the “Plant response rating, Tall Mallow” value ([4]; Rate 32 g/ha) was 80, the “Plant response rating, Tall Mallow” value ([4]; Rate 64 g/ha) was 80 and the “Plant response rating, Tall Mallow” value ([4]; Rate 125 g/ha) was 98. The “Plant response rating, Tall Mallow” value ([4]; Rate 250 g/ha) was 98, the “Plant response rating, Com. groundsel” value ([5]; Rate 64 g/ha) was 100 and the “Plant response rating, Com. groundsel” value ([5]; Rate 125 g/ha) was 100. For the same molecule, the “Plant response rating, Com. groundsel” value ([5]; Rate 250 g/ha) was 100, the “Wild oats plant response rating” value (wild oat (Avena fatua); Rate 62 g/ha, Postemergence) was 4 and the “Wild oats plant response rating” value (wild oat (Avena fatua); Rate 62 g/ha, Preemergence) was 6. For the same molecule, the “Wild oats plant response rating” value (wild oat (Avena fatua); Rate 125 g/ha, Postemergence) was 4, the “Plant response rating, Wild oats” value (wild oat (Avena fatua); Rate 125 g/ha, Preemergence) was 7 and the “Plant response rating, Wild oats” value (wild oat (Avena fatua); Rate 250 g/ha, Postemergence) was 5. For the same molecule, the “Plant response rating, Wild oats” value (wild oat (Avena fatua); [9]) was 9, the “Plant response rating, Crabgrass” value ([6]; Rate 62 g/ha, Postemergence) was 3 and the “Crabgrass plant response rating” value ([6]; Rate 62 g/ha) was 4. For the same molecule, the “Plant response rating, Crabgrass” value ([6]; Rate 125 g/ha, Postemergence) was 4, the “Crabgrass plant response rating” value ([6]; Rate 125 g/ha) was 4 and the “Plant response rating, Crabgrass” value ([6]; Rate 250 g/ha, Postemergence) was 7. For the same molecule, the “Plant response rating, Crabgrass” value [6, 9] was 9, the “Plant response rating, Blackgrass” value ([7]; Rate 62 g/ha, Postemergence) was 4 and the “Blackgrass plant response rating” value ([7]; Rate 62 g/ha) was 5. The “Plant response rating, Blackgrass” value ([7]; Rate 125 g/ha, Postemergence) was 5, the “Blackgrass plant response rating” value ([7]; Rate 125 g/ha) was 6 and the “Plant response rating, Blackgrass” value ([7]; Rate 250 g/ha, Postemergence) was 7. The “Plant response rating, Blackgrass” value [7, 9] was 9, the “Plant response rating, Soybean” value (soybean (Glycine max); Rate 62 g/ha, Postemergence) was 5 and the “Soybean plant response rating” value (soybean (Glycine max); Rate 62 g/ha, Preemergence) was 0. For the same molecule, the “Soybean plant response rating” value (soybean (Glycine max); Rate 125 g/ha, Postemergence) was 6, the “Plant response rating, Soybean” value (soybean (Glycine max); Rate 125 g/ha, Preemergence) was 2 and the “Plant response rating, Soybean” value (soybean (Glycine max); Rate 250 g/ha, Postemergence) was 6. For the same molecule, the “Plant response rating, Soybean” value (soybean (Glycine max); [9]) was 2, the “Plant response rating, Nutsedge” value ([8]; Rate 62 g/ha, Postemergence) was 1 and the “Nutsedge plant response rating” value ([8]; Rate 62 g/ha, Preemergence) was 2. For the same molecule, the “Nutsedge plant response rating” value ([8]; Rate 125 g/ha, Postemergence) was 2 and the “Plant response rating, Nutsedge” value ([8]; Rate 250 g/ha, Postemergence) was 3.
